Measurements reported in patent US11744903B2, “Method for preparing cyclodextrin metal organic framework (CD-MOF) stable in aqueous phase” (Qilu University of Technology, priority 2022, dated 2023).

Assay: Encapsulation rate of β-CD-MOF for active substances
Assay type: physicochemical
Conditions: carrier β-CD-MOF; loaded by impregnation, Examples 1-5

Going from `O=C/C=C/c1ccccc1` [Cinnamic aldehyde, cinnamic aldehyde] to `Oc1ccc(C=Cc2cc(O)cc(O)c2)cc1` [Resveratrol, resveratrol], the Encapsulation rate rises from 79.68 ± 0.28% to 82.19 ± 0.35%.

Compared with `COc1cc2c(=O)c(-c3ccc(O)cc3)coc2cc1O` [Glycitein, glycitein], `O=C1C[C@@H](c2ccc(O)cc2)Oc2cc(O)cc(O)c21` [Naringenin, naringenin] is lower in Encapsulation rate: 76.34 ± 0.23% for the first, 70.23 ± 0.15% for the second.

`Cc1coc2c1C(=O)C(=O)c1c-2ccc2c1CCCC2(C)C` [Tanshinone IIA, tanshinone IIA] gave an Encapsulation rate of 76.40 ± 0.67%.
